Source: publication PMC7574625 (ACS Catalysis, 2020)
Numbering of substitutions follows the chain as printed.

Legend:
LmrR A92Q = target: T1, LmrR A92Q (Lactococcus cremoris, UniProt A2RI36, A92Q); experiment: binding affinity
T1 sequence (A2RI36 1-116 A92Q): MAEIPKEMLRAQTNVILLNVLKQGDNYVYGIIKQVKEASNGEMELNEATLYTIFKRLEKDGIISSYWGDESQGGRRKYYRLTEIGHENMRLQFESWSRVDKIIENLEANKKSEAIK

LmrR_A92E = target: T2, LmrR_A92E (Lactococcus cremoris, UniProt A2RI36, A92E); experiment: binding affinity
T2 sequence (A2RI36 1-116 A92E): T1 sequence (A2RI36 1-116 A92Q) with Q92E

Kd (LmrR A92Q): 103 ± 41 nM | Kd (LmrR_A92E): 65 ± 19 nM
SMILES: [Cu+2].c1cnc2c(c1)ccc1cccnc12 [Cu(II)-phen]
